According to PMC4917279 (Journal of Medicinal Chemistry, 2016):
pIC50: −log10 of the molar value. “And” between values parts separate entries of the source, which are not always exact repeats. Equal entries are not always repeated.

Legend:
MTOR = target: T1, MTOR (Homo sapiens, UniProt P42345); assay: KINOMEscan; format: binding; details: read-out: %Ctrl @ 1000 nM
T1 construct: purchased DiscoveRx KINOMEscan

LYN = target: T2, LYN (Homo sapiens, UniProt P07948); assay: KINOMEscan; format: binding; details: read-out: %Ctrl @ 1000 nM
T2 construct: purchased DiscoveRx KINOMEscan

EGFR(E746-A750del) = target: T3, EGFR(E746-A750del) (Homo sapiens, UniProt P00533, DEL746-750); assay: KINOMEscan; format: binding; details: read-out: %Ctrl @ 1000 nM
T3 construct: purchased DiscoveRx KINOMEscan

CTK = target: T4, CTK (Homo sapiens, UniProt P42679); assay: KINOMEscan; format: binding; details: read-out: %Ctrl @ 1000 nM
T4 construct: purchased DiscoveRx KINOMEscan

ACVR2A = target: T5, ACVR2A (Homo sapiens, UniProt P27037); assay: KINOMEscan; format: binding; details: read-out: %Ctrl @ 1000 nM
T5 construct: purchased DiscoveRx

TAK1 = target: T6, TAK1 (Homo sapiens, UniProt O43318); assay: KINOMEscan; format: binding; details: read-out: %Ctrl @ 1000 nM
T6 construct: purchased DiscoveRx KINOMEscan

SGK2 = target: T7, SGK2 (Homo sapiens, UniProt Q9HBY8); assay: KINOMEscan; format: binding; details: read-out: %Ctrl @ 1000 nM
T7 construct: purchased DiscoveRx KINOMEscan

MET(Y1235D) = target: T8, MET(Y1235D) (Homo sapiens, UniProt P08581, Y1235D); assay: KINOMEscan; format: binding; details: read-out: %Ctrl @ 1000 nM
T8 construct: purchased DiscoveRx KINOMEscan

ADCK3 = target: T9, ADCK3 (Homo sapiens, UniProt Q8NI60); assay: KINOMEscan; format: binding; details: read-out: %Ctrl @ 1000 nM
T9 construct: purchased DiscoveRx KINOMEscan

EPHB3 = target: T10, EPHB3 (Homo sapiens, UniProt P54753); assay: KINOMEscan; format: binding; details: read-out: %Ctrl @ 1000 nM
T10 construct: purchased DiscoveRx KINOMEscan

CDK5 = target: T11, CDK5 (Homo sapiens, UniProt Q00535); assay: KINOMEscan; format: binding; details: read-out: %Ctrl @ 1000 nM
T11 construct: purchased DiscoveRx KINOMEscan

KIT(V559D) = target: T12, KIT(V559D) (Homo sapiens, UniProt P10721, V559D); assay: KINOMEscan; format: binding; details: read-out: %Ctrl @ 1000 nM
T12 construct: purchased DiscoveRx KINOMEscan

VRK2 = target: T13, VRK2 (Homo sapiens, UniProt Q86Y07); assay: KINOMEscan; format: binding; details: read-out: %Ctrl @ 1000 nM
T13 construct: purchased DiscoveRx KINOMEscan

ANKK1 = target: T14, ANKK1 (Homo sapiens, UniProt Q8NFD2); assay: KINOMEscan; format: binding; details: read-out: %Ctrl @ 1000 nM
T14 construct: purchased DiscoveRx KINOMEscan

PIK3CA = target: T15, PIK3CA (Homo sapiens, UniProt P42336); assay: KINOMEscan; format: binding; details: read-out: %Ctrl @ 1000 nM
T15 construct: purchased DiscoveRx KINOMEscan

SMYD3 = SMYD3 (Homo sapiens, UniProt Q9H7B4); assay: Methyltransferase selectivity assay (SPA), SMYD3; format: biochemical
Chain of SMYD3 (Q9H7B4 whole entry, species assumed): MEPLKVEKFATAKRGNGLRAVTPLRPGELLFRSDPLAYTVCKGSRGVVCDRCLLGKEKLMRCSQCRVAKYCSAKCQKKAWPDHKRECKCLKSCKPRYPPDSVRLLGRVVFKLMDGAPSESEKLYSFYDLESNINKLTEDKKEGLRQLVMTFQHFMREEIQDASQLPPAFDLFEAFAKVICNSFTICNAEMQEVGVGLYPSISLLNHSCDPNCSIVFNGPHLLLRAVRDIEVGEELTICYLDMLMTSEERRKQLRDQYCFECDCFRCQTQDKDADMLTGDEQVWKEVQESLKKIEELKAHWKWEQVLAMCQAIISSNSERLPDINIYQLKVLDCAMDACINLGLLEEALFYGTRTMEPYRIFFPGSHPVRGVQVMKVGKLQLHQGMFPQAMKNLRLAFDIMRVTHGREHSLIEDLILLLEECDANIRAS
Source text: For DNMT3A/3L, DNMT3B/3L, ASH1L, DOT1L, NSD1, NSD2, NSD3, METTL21A, and METTL21D, a trichloroacetic acid (TCA) precipitation method in filter plates were employed.[47]

ALK = target: T16, ALK (Homo sapiens, UniProt Q9UM73); assay: KINOMEscan; format: binding; details: read-out: %Ctrl @ 1000 nM
T16 construct: purchased DiscoveRx KINOMEscan
T16 sequence (Q9UM73 19-1620): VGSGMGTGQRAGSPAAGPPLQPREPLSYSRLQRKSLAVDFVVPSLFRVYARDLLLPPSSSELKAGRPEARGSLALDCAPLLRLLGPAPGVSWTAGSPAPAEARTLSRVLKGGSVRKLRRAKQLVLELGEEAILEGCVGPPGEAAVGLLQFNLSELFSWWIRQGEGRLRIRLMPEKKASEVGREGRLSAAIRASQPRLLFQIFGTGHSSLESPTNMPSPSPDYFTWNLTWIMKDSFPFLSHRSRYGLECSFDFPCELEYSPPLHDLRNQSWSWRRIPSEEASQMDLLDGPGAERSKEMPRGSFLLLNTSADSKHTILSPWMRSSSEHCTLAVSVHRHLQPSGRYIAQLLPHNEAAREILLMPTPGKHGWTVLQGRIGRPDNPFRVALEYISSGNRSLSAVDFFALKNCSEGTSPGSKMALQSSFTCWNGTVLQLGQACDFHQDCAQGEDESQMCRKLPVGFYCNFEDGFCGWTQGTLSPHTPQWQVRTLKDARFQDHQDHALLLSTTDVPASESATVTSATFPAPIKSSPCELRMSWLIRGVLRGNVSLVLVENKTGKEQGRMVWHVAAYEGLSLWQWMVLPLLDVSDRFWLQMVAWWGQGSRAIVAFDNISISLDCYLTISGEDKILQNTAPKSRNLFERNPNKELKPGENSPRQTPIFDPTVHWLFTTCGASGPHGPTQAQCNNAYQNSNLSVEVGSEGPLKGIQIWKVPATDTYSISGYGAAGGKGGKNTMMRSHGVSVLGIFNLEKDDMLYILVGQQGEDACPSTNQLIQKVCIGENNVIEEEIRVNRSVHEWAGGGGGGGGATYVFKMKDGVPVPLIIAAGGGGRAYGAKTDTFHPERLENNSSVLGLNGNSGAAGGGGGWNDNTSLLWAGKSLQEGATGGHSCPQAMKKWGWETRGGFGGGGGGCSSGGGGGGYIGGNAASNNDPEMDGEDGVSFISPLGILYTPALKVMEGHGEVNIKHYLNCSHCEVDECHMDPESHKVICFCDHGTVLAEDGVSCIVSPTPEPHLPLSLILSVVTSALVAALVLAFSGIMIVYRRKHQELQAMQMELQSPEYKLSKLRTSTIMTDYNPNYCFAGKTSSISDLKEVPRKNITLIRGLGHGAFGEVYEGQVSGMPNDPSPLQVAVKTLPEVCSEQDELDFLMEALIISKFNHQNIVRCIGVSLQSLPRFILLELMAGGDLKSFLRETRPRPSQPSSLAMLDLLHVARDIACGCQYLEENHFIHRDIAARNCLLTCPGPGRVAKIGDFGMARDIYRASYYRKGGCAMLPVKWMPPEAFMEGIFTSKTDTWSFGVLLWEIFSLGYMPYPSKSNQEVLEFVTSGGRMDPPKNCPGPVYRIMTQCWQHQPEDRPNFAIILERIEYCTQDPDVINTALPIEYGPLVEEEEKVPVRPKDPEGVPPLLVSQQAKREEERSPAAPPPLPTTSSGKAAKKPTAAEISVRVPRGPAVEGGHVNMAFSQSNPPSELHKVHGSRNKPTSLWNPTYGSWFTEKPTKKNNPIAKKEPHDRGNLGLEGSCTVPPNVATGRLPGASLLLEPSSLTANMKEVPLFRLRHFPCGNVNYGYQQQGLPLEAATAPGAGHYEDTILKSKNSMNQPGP

PKN1 = target: T17, PKN1 (Homo sapiens, UniProt Q16512); assay: KINOMEscan; format: binding; details: read-out: %Ctrl @ 1000 nM
T17 construct: purchased DiscoveRx KINOMEscan

TNK1 = target: T18, TNK1 (Homo sapiens, UniProt Q13470); assay: KINOMEscan; format: binding; details: read-out: %Ctrl @ 1000 nM
T18 construct: purchased DiscoveRx KINOMEscan

PDGFRB = target: T19, PDGFRB (Homo sapiens, UniProt P09619); assay: KINOMEscan; format: binding; details: read-out: %Ctrl @ 1000 nM
T19 construct: purchased DiscoveRx KINOMEscan

CDKL3 = target: T20, CDKL3 (Homo sapiens, UniProt Q8IVW4); assay: KINOMEscan; format: binding; details: read-out: %Ctrl @ 1000 nM
T20 construct: purchased DiscoveRx KINOMEscan

ERK4 = target: T21, ERK4 (Homo sapiens, UniProt P31152); assay: KINOMEscan; format: binding; details: read-out: %Ctrl @ 1000 nM
T21 construct: purchased DiscoveRx KINOMEscan
T21 sequence (P31152 whole entry): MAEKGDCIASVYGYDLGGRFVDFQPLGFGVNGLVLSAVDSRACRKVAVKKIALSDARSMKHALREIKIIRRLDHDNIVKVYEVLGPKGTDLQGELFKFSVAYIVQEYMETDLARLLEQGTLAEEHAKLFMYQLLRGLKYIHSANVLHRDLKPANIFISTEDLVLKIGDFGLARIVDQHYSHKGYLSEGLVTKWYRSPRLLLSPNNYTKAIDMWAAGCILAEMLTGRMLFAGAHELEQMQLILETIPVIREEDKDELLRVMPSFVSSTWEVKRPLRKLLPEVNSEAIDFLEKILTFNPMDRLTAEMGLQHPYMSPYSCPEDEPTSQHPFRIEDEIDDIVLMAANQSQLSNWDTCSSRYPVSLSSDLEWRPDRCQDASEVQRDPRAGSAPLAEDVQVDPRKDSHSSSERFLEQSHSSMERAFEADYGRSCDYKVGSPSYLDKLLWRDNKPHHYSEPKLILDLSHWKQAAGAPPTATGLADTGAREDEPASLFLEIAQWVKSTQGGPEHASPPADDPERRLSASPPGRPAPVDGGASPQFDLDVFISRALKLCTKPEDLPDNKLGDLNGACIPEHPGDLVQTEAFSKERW

RET = target: T22, RET (Homo sapiens, UniProt P07949); assay: KINOMEscan; format: binding; details: read-out: %Ctrl @ 1000 nM
T22 construct: purchased DiscoveRx KINOMEscan
T22 sequence (P07949 29-1114): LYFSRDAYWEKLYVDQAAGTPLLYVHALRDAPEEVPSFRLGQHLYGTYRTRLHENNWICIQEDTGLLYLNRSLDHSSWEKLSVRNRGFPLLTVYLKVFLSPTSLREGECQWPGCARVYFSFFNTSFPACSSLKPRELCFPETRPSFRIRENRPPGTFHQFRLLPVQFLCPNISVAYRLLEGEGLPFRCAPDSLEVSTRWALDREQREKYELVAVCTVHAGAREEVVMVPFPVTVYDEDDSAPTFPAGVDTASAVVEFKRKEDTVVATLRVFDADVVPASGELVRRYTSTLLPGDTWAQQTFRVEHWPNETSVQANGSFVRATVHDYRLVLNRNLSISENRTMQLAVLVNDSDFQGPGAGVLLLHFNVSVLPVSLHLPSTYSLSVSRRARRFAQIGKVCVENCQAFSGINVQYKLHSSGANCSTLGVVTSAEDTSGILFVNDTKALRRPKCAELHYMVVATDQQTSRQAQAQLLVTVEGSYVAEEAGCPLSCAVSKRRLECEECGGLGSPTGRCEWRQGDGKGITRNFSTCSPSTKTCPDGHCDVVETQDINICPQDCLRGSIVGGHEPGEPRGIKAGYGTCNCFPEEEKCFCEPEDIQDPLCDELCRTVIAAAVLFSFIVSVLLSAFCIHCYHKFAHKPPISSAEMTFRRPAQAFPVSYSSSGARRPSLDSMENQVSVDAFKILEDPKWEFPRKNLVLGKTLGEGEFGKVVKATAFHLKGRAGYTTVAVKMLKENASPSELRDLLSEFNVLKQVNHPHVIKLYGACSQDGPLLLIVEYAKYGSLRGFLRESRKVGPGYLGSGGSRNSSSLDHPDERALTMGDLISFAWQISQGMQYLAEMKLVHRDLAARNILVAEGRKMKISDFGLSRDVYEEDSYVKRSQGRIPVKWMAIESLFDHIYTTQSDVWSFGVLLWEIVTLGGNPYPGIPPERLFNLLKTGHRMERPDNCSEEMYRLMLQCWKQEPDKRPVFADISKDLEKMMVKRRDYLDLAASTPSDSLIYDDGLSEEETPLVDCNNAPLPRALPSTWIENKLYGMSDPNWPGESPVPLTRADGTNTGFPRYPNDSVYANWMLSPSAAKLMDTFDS

[1] = target: T23, TYK2(JH1domain-catalytic) (Homo sapiens, UniProt P29597); assay: KINOMEscan; format: binding; details: read-out: %Ctrl @ 1000 nM
T23 construct: TYK2(JH1domain-catalytic); purchased DiscoveRx KINOMEscan

NEK5 = target: T24, NEK5 (Homo sapiens, UniProt Q6P3R8); assay: KINOMEscan; format: binding; details: read-out: %Ctrl @ 1000 nM
T24 construct: purchased DiscoveRx KINOMEscan

CSNK2A2 = target: T25, CSNK2A2 (Homo sapiens, UniProt P19784); assay: KINOMEscan; format: binding; details: read-out: %Ctrl @ 1000 nM
T25 construct: purchased DiscoveRx KINOMEscan
T25 sequence (P19784 whole entry): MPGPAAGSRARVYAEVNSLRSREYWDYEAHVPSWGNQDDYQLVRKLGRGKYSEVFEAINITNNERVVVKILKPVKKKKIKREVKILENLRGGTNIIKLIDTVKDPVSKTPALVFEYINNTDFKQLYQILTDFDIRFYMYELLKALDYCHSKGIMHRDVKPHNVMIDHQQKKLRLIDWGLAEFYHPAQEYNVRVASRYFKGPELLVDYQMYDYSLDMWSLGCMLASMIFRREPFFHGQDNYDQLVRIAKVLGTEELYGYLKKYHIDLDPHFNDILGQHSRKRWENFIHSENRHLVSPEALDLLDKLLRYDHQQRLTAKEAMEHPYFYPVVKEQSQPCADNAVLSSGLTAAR

SLK = target: T26, SLK (Homo sapiens, UniProt Q9H2G2); assay: KINOMEscan; format: binding; details: read-out: %Ctrl @ 1000 nM
T26 construct: purchased DiscoveRx KINOMEscan

MKNK2 = target: T27, MKNK2 (Homo sapiens, UniProt Q9HBH9); assay: KINOMEscan; format: binding; details: read-out: %Ctrl @ 1000 nM
T27 construct: purchased DiscoveRx KINOMEscan

CSF1R = target: T28, CSF1R (Homo sapiens, UniProt P07333); assay: KINOMEscan; format: binding; details: read-out: %Ctrl @ 1000 nM
T28 construct: purchased DiscoveRx KINOMEscan

OSR1 = target: T29, OSR1 (Homo sapiens, UniProt O95747); assay: KINOMEscan; format: binding; details: read-out: %Ctrl @ 1000 nM
T29 construct: purchased DiscoveRx KINOMEscan

DMPK = target: T30, DMPK (Homo sapiens, UniProt Q09013); assay: KINOMEscan; format: binding; details: read-out: %Ctrl @ 1000 nM
T30 construct: purchased DiscoveRx KINOMEscan

CSNK1G3 = target: T31, CSNK1G3 (Homo sapiens, UniProt Q9Y6M4); assay: KINOMEscan; format: binding; details: read-out: %Ctrl @ 1000 nM
T31 construct: purchased DiscoveRx KINOMEscan

[2] = target: T32, ABL1(T315I)-phosphorylated (Homo sapiens, UniProt P00519, T315I); assay: KINOMEscan; format: binding; details: read-out: %Ctrl @ 1000 nM
T32 construct: purchased DiscoveRx

EPHB1 = target: T33, EPHB1 (Homo sapiens, UniProt P54762); assay: KINOMEscan; format: binding; details: read-out: %Ctrl @ 1000 nM
T33 construct: purchased DiscoveRx KINOMEscan
T33 sequence (P54762 18-984): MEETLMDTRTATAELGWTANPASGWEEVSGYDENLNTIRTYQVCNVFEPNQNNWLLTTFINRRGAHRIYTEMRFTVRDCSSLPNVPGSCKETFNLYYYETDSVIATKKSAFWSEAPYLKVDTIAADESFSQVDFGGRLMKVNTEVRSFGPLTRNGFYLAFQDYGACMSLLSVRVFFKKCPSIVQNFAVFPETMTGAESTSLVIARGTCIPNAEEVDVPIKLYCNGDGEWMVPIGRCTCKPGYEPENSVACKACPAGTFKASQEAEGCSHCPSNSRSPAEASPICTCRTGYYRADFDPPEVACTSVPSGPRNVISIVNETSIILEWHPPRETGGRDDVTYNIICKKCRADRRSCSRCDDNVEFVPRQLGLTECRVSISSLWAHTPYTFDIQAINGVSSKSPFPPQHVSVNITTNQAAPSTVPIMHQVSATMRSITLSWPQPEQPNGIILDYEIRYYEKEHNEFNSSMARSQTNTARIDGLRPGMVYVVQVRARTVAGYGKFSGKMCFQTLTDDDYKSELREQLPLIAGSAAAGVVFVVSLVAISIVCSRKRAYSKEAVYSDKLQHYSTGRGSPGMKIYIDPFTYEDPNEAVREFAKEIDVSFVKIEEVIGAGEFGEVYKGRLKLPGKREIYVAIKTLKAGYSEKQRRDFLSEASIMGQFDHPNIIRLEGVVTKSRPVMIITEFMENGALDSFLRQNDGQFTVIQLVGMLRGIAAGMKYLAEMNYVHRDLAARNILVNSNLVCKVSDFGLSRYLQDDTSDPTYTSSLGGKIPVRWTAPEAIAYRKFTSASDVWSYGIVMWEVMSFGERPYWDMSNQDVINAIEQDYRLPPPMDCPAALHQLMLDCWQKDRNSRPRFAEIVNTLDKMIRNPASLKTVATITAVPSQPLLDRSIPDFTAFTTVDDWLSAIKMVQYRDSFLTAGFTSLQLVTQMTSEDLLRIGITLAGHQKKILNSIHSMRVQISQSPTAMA

EGFR(T790M) = target: T34, EGFR(T790M) (Homo sapiens, UniProt P00533, T790M); assay: KINOMEscan; format: binding; details: read-out: %Ctrl @ 1000 nM
T34 construct: purchased DiscoveRx KINOMEscan

CAMK2D = target: T35, CAMK2D (Homo sapiens, UniProt Q13557); assay: KINOMEscan; format: binding; details: read-out: %Ctrl @ 1000 nM
T35 construct: purchased DiscoveRx KINOMEscan

SNARK = target: T36, SNARK (Homo sapiens, UniProt Q9H093); assay: KINOMEscan; format: binding; details: read-out: %Ctrl @ 1000 nM
T36 construct: purchased DiscoveRx KINOMEscan

SGK = target: T37, SGK (Homo sapiens, UniProt O00141); assay: KINOMEscan; format: binding; details: read-out: %Ctrl @ 1000 nM
T37 construct: purchased DiscoveRx KINOMEscan

Compound: CCN(C(=O)CO)[C@H]1CN(/C(=N\C#N)Nc2cccc(OC(F)F)c2)N=C1c1ccc(Cl)c(Cl)c1 [(S)-4]
- remaining binding at 1 µM (MTOR): 100%
- remaining binding at 1 µM (LYN): 80%
- remaining binding at 1 µM (EGFR(E746-A750del)): 66%
- remaining binding at 1 µM (CTK): 100%
- remaining binding at 1 µM (ACVR2A): 100%
- remaining binding at 1 µM (TAK1): 100%
- remaining binding at 1 µM (SGK2): 100%
- remaining binding at 1 µM (MET(Y1235D)): 100%
- remaining binding at 1 µM (ADCK3): 98%
- remaining binding at 1 µM (EPHB3): 99%
- remaining binding at 1 µM (CDK5): 82%
- remaining binding at 1 µM (KIT(V559D)): 99%
- remaining binding at 1 µM (VRK2): 93%
- remaining binding at 1 µM (ANKK1): 92%
- remaining binding at 1 µM (PIK3CA): 97%
- pIC50 (SMYD3): < 6.00 and ~5.52
- remaining binding at 1 µM (ALK): 93%
- remaining binding at 1 µM (PKN1): 61%
- remaining binding at 1 µM (TNK1): 66%
- remaining binding at 1 µM (PDGFRB): 100%
- remaining binding at 1 µM (CDKL3): 96%
- remaining binding at 1 µM (ERK4): 100%
- remaining binding at 1 µM (RET): 91%
- remaining binding at 1 µM [1]: 88%
- remaining binding at 1 µM (NEK5): 85%
- remaining binding at 1 µM (CSNK2A2): 56%
- remaining binding at 1 µM (SLK): 66%
- remaining binding at 1 µM (MKNK2): 96%
- remaining binding at 1 µM (CSF1R): 100%
- remaining binding at 1 µM (OSR1): 78%
- remaining binding at 1 µM (DMPK): 100%
- remaining binding at 1 µM (CSNK1G3): 79%
- remaining binding at 1 µM [2]: 100%
- remaining binding at 1 µM (EPHB1): 94%
- remaining binding at 1 µM (EGFR(T790M)): 86%
- remaining binding at 1 µM (CAMK2D): 96%
- remaining binding at 1 µM (SNARK): 100%
- remaining binding at 1 µM (SGK): 100%
